Data taken from article PMC11375794, “Discovery of new Hsp90–Cdc37 protein–protein interaction inhibitors: in silico screening and optimization of anticancer activity” (RSC Advances, 2024).

Key:
leukemia cell line THP-1 = assay: MTS cell viability (antiproliferative) assay in THP-1; type: cell-based; conditions: mean ± SD; for THP-1 IC50: 72 hours; for IC50: Homo sapiens, THP-1, 72 hours
Description: Hormone-positive breast cancer cell line MCF-7 (ATCC-HTB-22; ATCC) was grown in Dulbecco's Modified Eagle's Medium (DMEM), while Ewing sarcoma cell line SK-N-MC (a kind gift from Beat Schäfer) and THP-1 (ATCC-TIB-202; ATCC) cells were grown in Roswell Park Memorial Institute (RPMI) 1640. The medium was supplemented with 10% heat-inactivated fetal bovine serum (Gibco, Thermo Fisher Scientific, Waltham, MA, USA), 100 U per mL penicillin, 100 μg per mL streptomycin, and 2 mM L-glutamine (all from Sigma-Aldrich, St. Louis, MO, USA). All cell lines were incubated at 37 °C in a 5% CO2 atmosphere.
The antiproliferative activity of the compounds was evaluated against MCF-7 (ATCC-HTB-22; ATCC), SK-N-MC (a kind gift from Beat Schäfer) and THP-1 (ATCC-TIB-202; ATCC) cancer cell lines using the MTS assay (Promega, Madison, WI, USA). Cells were seeded in 96-well plates at a density of 2 × 10^4 cells per mL in 100 μL of growth medium for THP-1 and were treated with compounds and controls directly, while 3 × 10^3 cells per mL for MCF-7 and SK-N-MC were seeded in 100 μL of growth medium and allowed to adhere overnight following the treatment. In all cases the cells were treated with respective newly prepared compounds, positive controls (17-DMAG for MCF-7 and SK-N-MC; PU-H71 for THP-1) and a vehicle control (0.5% DMSO). The incubation time after treatment was 72 hours, then CellTiter96® Aqueous One Solution Reagent (Promega, Madison, WI, USA) was added to each well. Following a 3 hours incubation, absorbance was measured at 492 nm using BioTek's Synergy™ 4 Hybrid Microplate Reader (Winooski, VT, USA). The measurements were performed in two biological repetitions and each time the experiment was performed in a triplicate. The IC50 values, representing the concentration of inhibitor required for half-maximal inhibition, are the average of three independent experiments and were calculated using GraphPad Prism 9.5.0 software (San Diego, CA, USA).

[1] = system: Hsp90 client protein levels (Cdk4, Akt, c-Raf, ERα, IGF1R) and Hsp70, Hsp90 in MCF-7 cells; assay: Western blot of Hsp90 client proteins and heat shock proteins; type: cell-based; conditions: for ERα level: MCF-7, 20 μM; for heat shock response (Hsp70 and Hsp90 levels): MCF-7, 24 hours
Description: MCF-7 cells were treated with compounds 8c (20 μM and 50 μM), 13g (20 μM and 50 μM) and DDO-5936 (20 μM) or 0.5% DMSO as a negative control. The cells were incubated with the compounds or negative control for 24 hours. After incubation, the cells were rinsed with PBS (Gibco, Thermo Fisher Scientific, Waltham, MA, USA) and lysed using RIPA buffer containing 50 mM Tris–HCl pH 7.4, 150 mM NaCl, 1% NP-40, 0.5% sodium deoxycholate, and 1 mM EDTA. The RIPA buffer was further supplemented with Halt™ Protease Inhibitor Cocktail and Halt™ Phosphatase Inhibitor Cocktail (both from Thermo Fisher Scientific, Waltham, MA, USA) at a 1 : 100 dilution. The lysates were then frozen for at least 24 hours. Upon thawing, the lysates were sonicated and centrifuged at 15 000 rpm for 20 minutes at 4 °C. Only the supernatants were collected, and protein concentration was measured using the DC protein assay (Bio-Rad, Hercules, California, USA). Proteins (20 μg) were separated by SDS-PAGE on a 10% acrylamide/bisacrylamide gel, running at 80 V for 15 minutes followed by 130 V for 60 minutes. The separated proteins were then transferred onto a nitrocellulose membrane using the iBlot 2 Dry Blotting System (Thermo Fisher Scientific, Waltham, MA, USA). The membranes were blocked with 5% BSA for 1 hour at room temperature to prevent nonspecific binding. Primary antibodies were then added, and the membranes were incubated overnight at 4 °C. The primary antibodies (Cell Signaling, Danvers, MA, USA) used included anti-β-ActinMouse mAb (1 : 5000), anti-Hsp90 Rabbit mAb (1 : 1000), anti-Hsp70 Mouse mAb (1 : 1000), anti-IGF1R Rabbit (1 : 1000), anti-CDK4 Rabbit (1 : 1000), anti-ERα Mouse mAb (1 : 1000), anti-Akt Rabbit mAb (1 : 1000), and anti-c-Raf Rabbit mAb (1 : 1000). Secondary antibodies included anti-rabbit IgG, HRP-linked antibody (1 : 10 000), and anti-mouse IgG, HRP-linked antibody (1 : 10 000), which were incubated with the membranes for 1 hour at room temperature. Following washes, SuperSignal™ West Femto Maximum Sensitivity Substrate (Thermo Fisher Scientific, Waltham, MA, USA) was applied. Visualization of the blots was performed using the UVITEC Cambridge Imaging System (UVITEC, Cambridge, UK), and densitometric analysis of the western blot bands was conducted using NineAlliance software. Relative protein densities were calculated in relation to β-actin, used as a loading control.

[2] = biological target: T1, full-length Hsp90β and Cdc37 (Homo sapiens, UniProt P08238); assay: MST PPI inhibition evaluation: Kd for Hsp90β in the presence of Cdc37; type: binding
T1 construct: host or cells: Escherichia coli strain Rosetta (Hsp90β)
T1 sequence (P08238 whole entry): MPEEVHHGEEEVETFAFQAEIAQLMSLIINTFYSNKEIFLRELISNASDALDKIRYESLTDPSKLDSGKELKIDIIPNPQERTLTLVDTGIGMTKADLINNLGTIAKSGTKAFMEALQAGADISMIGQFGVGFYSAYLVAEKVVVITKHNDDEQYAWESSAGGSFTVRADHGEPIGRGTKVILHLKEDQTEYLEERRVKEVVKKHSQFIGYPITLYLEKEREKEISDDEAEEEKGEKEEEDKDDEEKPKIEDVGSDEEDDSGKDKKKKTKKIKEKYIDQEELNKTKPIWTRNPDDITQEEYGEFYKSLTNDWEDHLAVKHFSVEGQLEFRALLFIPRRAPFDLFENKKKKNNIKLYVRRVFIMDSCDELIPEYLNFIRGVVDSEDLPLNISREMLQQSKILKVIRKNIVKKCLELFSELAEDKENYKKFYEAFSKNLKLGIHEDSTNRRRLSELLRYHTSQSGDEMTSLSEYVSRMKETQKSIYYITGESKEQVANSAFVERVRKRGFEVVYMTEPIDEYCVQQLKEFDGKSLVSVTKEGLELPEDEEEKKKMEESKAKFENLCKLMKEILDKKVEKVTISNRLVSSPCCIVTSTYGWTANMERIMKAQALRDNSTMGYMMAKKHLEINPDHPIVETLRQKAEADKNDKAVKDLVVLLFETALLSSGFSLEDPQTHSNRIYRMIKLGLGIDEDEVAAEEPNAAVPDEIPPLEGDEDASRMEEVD
Description: The full-length Hsp90β was labeled using the Monolith His-Tag Labeling Kit RED-tris-NTA following the manufacturer's instructions (NanoTemper Technologies GmbH, Munich, Germany). The proteins were first diluted to a concentration of 8 nM in assay buffer (50 mM Tris–HCl, pH 7.4, containing 150 mM NaCl, 5% ethanol, and 10 mM MgCl2). To determine the Kd values, the proteins were mixed with the test compounds in a 1 : 1 ratio as stated in the manufacturers protocol. The final concentration of Hsp90β was 4 nM, with compounds added in the following ranges: 1000 μM to 5.86 μM for 8c; 312.5 μM to 0.15 μM for 13g and 125 μM to 3.91 μM for 1. Two independent Kd determinations were performed for compounds 8c and 13g. […] Next, Cdc37 (AR09008PUN, OriGene Technologies, Inc., Rockville, MD, USA) was acquired for the purpose of PPI inhibition evaluation between full-length Hsp90β and Cdc37. […] In all experiments the compounds were incubated with the proteins for 15 minutes in the dark at room temperature. The mixtures were then loaded into Monolith NT.115 Premium Capillaries (NanoTemper Technologies GmbH, Munich, Germany). Thermophoresis was induced at 1475 ± 15 nm and measured using a Monolith NT.115 pico instrument (NanoTemper Technologies GmbH, Munich, Germany). Measurements were conducted at ambient temperature (24–25 °C), with excitation power set to 20% and MST power set to 40%, and a laser on time of 5 seconds. To calculate the Kd values, the average fluorescence responses for each concentration were plotted against the logarithm of compound concentrate on using GraphPad Prism software (GraphPad Software, Inc., La Jolla, CA).

Row | THP-1 IC50 (leukemia cell line THP-1) | IC50 (leukemia cell line THP-1) [µM] | Kd ([2]; 0.5 μM Cdc37) [µM] | Kd ([2]; 1.0 μM Cdc37) [µM] | Kd ([2]; 2.0 μM Cdc37) [µM] | Kd (Hsp90β) in presence of Cdc37 ([2]; 1.0 μM Cdc37) | Structure (SMILES) | ERα level ([1]; 24 hours) | Hsp70 levels ([1]; MCF-7, 50 μM, 24 hours) | concentration of kinase clients Cdk4, c-Raf, IGF1R, and Akt ([1]; MCF-7, 50 μM, 24 hours) | heat shock response (Hsp70 and Hsp90 levels) [1]
1 | retained some inhibitory activity | 33.9 ± 8.5 | 81.7 | 90.2 | 98.2 | – | CN(CCOc1ccccc1)C(=O)c1csc(Nc2cc(N3CCNCC3)ncn2)n1 [Compound 8c, N-Methyl-N-(2-phenoxyethyl)-2-((6-(piperazin-1-yl)pyrimidin-4-yl)amino)thiazole-4-carboxamide] | significantly influenced | statistically insignificant decrease | decreased | do not induce a heat shock response
2 | retained some inhibitory activity | 41.5 ± 6.3 | – | – | – | too low for quantification | O=C(NCCOc1ccccc1)c1ccc(Nc2cc(N3CCNCC3)ncn2)cc1 [Compound 13g, N-(2-Phenoxyethyl)-4-((6-(piperazin-1-yl)pyrimidin-4-yl)amino)benzamide] | significantly influenced | – | decreased | do not induce a heat shock response
